Laboratory results reported in patent US12475972B2, “Prediction system for identifying key heterogeneous molecules driving tumor metastasis” (NANJING HANWEI PUBLIC HEALTH TECHNOLOGY CO., LTD., priority 2021, dated 2025).
pIC50: −log10 of the molar value. One block for each compound: values may come before it.

Legend:
[1] = system: FASN; assay: Immunoblotting of FASN and FAK after EGCG; assay type: cell-based; conditions: dose-response
[2] = system: FASN; assay: Protein mass spectrometry of residual lung metastatic lesions; assay type: in vivo, mice
Description: On the basis of the above model, primary cells were extracted from the residual gastric cancer cells metastatic foci of the lungs of EGCG-treated mice, named BGC823-LPC2. Firstly, protein mass spectrometry analysis was continued on the residual metastatic lesions in the lungs of the EGCG group and the combined treatment group with SP141 and JP3, with a focus on observing the protein expression changes of each independent molecule identified in 1.4 above.

[3] = system: BGC823 cells and BGC823-LPC1; assay: Transwell experiment after FASN inhibitor EGCG; assay type: cell-based; conditions: different concentrations, 24 hours
Method: Further validation of the relationship between FASN and gastric cancer metastasis using transwell and scratch experiments: BGC823 cells and BGC823-LPC1 (primary cells of residual lung metastases in the animal model SP141 and JP3 combined intervention group) were treated with different concentrations of FASN inhibitor EGCG for 24 hours, followed by transwell experiments. […] The inhibition rate of perforation cells was similar in both types of cells (FIG. 20B). […] As shown in FIGS. 20A-20D, intervention on FASN can inhibit the migration of gastric cancer cells.

[4] = system: BGC823-LPC2 cells; assay: BGC823-LPC2 passive metastasis model; assay type: in vivo, nude mice; conditions: compared with the solvent control group
Description: On the basis of the positive results obtained in the cell model, the animal model was then validated. A passive metastasis model was constructed using BGC823-LPC2 cells injected through the tail vein of nude mice. The mice were randomized on the second day and given control solvent, EGCG, WP-1130 alone, and WP-1130 plus sh-PFN1 lentivirus in a sequential manner.

[5] = system: BGC823-LPC1; assay: BGC823-LPC1 passive metastasis model; assay type: in vivo, mice; conditions: compared to the solvent control group
Method: A passive metastasis model was constructed by extracting primary cells BGC823-LPC1 from residual lung metastases after joint intervention on JWA and MDM2. On the second day after injecting cells into the tail vein of the model mice, they were grouped and administered. During the medication period, they were weighed on time. At the end of the modeling, the lung wet weight of each group of mice was measured, and the situation of lung metastases was observed.

[6] = system: SGC7901; assay: CCK-8 half inhibitory concentration on gastric cancer cells; assay type: cell-based; conditions: CCK-8, SGC7901
[7] = system: BGC823; assay: as above; assay type: cell-based; conditions: CCK-8, BGC823
[8] = system: AGS; assay: as above; assay type: cell-based; conditions: CCK-8, AGS
[9] = system: gastric cancer cells BGC823, SGC7901, and MFC; assay: Perforated cell count (transwell) after SP141; assay type: cell-based; conditions: different doses, 24 hours
[10] = system: gastric cancer cells BGC823, SGC7901, and MFC; assay: Cell scratch assay after SP141; assay type: cell-based
[11] = system: B16F10 melanoma cells; assay: B16F10 tail vein passive lung metastasis model; assay type: in vivo, mice; conditions: different doses, dose-response
Method: A passive metastasis model was constructed by injecting B16F10 melanoma cells into the tail vein of mice. On the second day of cell inoculation, the mice were grouped, and Ctrl-R or JP1 peptides were injected intraperitoneally for intervention. […] Note: Ctrl-R peptide and JP1 peptide can be found in Cui J, et al. Theranotics 2020; 10 (18): Recorded in 8036-8050.
A passive metastatic mouse model was constructed using B16F10 cells. On the second day of cell inoculation, different doses of SP141 were used for intervention. At the end of the modeling, the number of metastatic nodules in the lungs was recorded. As shown in FIGS. 29A-29D, SP141 can inhibit the lung metastasis of melanoma in mice, and there is a dose-response relationship. […] Conclusion: inhibition of MDM2 by SP141 can effectively reduce in vivo metastasis of melanoma in mice.
The mouse model validation was further carried out on the basis of cell model validation. A lung metastasis model with B16F10 cell tail vein injection was constructed, and on the second day, the mice were randomly grouped according to their body weight for drug intervention. As shown in FIGS. 31A-31F, the joint intervention of JWA and MDM2 has a synergistic inhibitory effect on the in vivo metastasis of melanoma. […]

[12] = system: MDM2; assay: MDM2 and JWA protein expression in B16F10 cells after SP141; assay type: cell-based; conditions: B16F10, 0, 0.25, 0.5 μM, 24 hours
Method: The relationship between the expression levels of JWA and MDM2 genes and the prognosis of melanoma population was analyzed using the TCGA database. […] Meanwhile, melanoma cells B16F10 were treated respectively with 0, 0.25, 0.5 μM SP141 for 24 hours, and the protein expression levels of MDM2 and JWA were measured.

[13] = system: AGS cells; assay: Transwell assay in AGS cells, Flag-JWA plasmid and SP141; assay type: cell-based; conditions: compared to the control group
Description: Thus, as shown in FIGS. 10A-10B, the combined intervention of JWA and MDM2 has a synergistic inhibitory effect on gastric cancer cell migration.

[14] = system: MGC803; assay: CCK-8 half inhibitory concentration on gastric cancer cells; assay type: cell-based; conditions: CCK-8, MGC803
[15] = system: MFC; assay: as above; assay type: cell-based, mouse; conditions: CCK-8, MFC
[16] = system: gastric cancer cell line MFC; assay: MFC abdominal implant metastasis model; assay type: in vivo, mouse
Method: The mouse-derived gastric cancer cell line MFC were selected to construct an abdominal implant metastasis model. On the second day of cell inoculation, different doses of SP141 were administered intraperitoneally for intervention. The modeling was completed and the number of abdominal metastatic nodules was recorded.

[17] = system: MDM2; assay: MDM2 and JWA protein expression in BGC823 cells after SP141; assay type: cell-based; conditions: BGC823, 0, 0.25, 0.5 μM, 24 hours
Method: With a cell model, the mutual regulation between JWA and MDM2 proteins was examined. […] Thereafter, 0, 0.25, 0.5 μM SP141 were used to inhibit the expression level of MDM2 in gastric cancer cells BGC823 for 24 hours. […] Thus, it can be seen that as shown in FIGS. 9A-9C, in gastric cancer, JWA and MDM2 have no mutually regulatory relationship at the protein and mRNA levels, and their respective biological functions on gastric cancer cells are independent.

[18] = system: BGC823-luc; assay: BGC823-luc tail vein passive metastasis model, in vivo fluorescence imaging; parameters: species or system nude mice
Method: In an in vivo model, fluorescent labeled gastric cancer cells BGC823-luc were injected into the tail vein of nude mice to construct a passive metastasis model of gastric cancer. Drug intervention began on the second day after cell inoculation (FIG. 11A). […] The weight of the mice of the drug intervention group was relatively stable and in good condition (FIG. 11B). […] Thus, as shown in FIGS. 11A-11D, the joint intervention of JWA and MDM2 has a synergistic inhibitory effect on gastric cancer metastasis in vivo.

[19] = system: USP9X; assay: Immunoblotting of USP9X and p-AKT after WP-1130; assay type: cell-based; conditions: dose-response
[20] = system: BGC823 LPC2 cells; assay: Scratch experiment after WP-1130; assay type: cell-based
[21] = system: BGC823-LPC2; assay: Transwell experiment in BGC823-LPC2 cells; assay type: cell-based; conditions: treated 8 hours, dose-response
Method: To verify the relationship between USP9X and gastric cancer metastasis, cultured BGC823 LPC2 cells were first treated with USP9X inhibitor WP-1130 (existing product) for 8 hours before a transwell experiment. […] Thus, it can be seen that inhibiting the expression of USP9X can effectively reduce the migration of gastric cancer cells.
For the heterogeneous molecule PFN1, a low expression lentiviral plasmid sh-PFN1 was constructed due to the lack of commercialized inhibitor compounds. Transwell experiments were performed after transfection of sh-con and sh-PFN1 in BGC823-LPC2 for 48 hours.

SMILES: O=C(O[C@@H]1Cc2c(O)cc(O)cc2O[C@@H]1c1cc(O)c(O)c(O)c1)c1cc(O)c(O)c(O)c1 [EGCG]
expression level of FASN protein [1]: reduced | transfer related protein FAK [1]: correspondingly reduced | rest of the proteins inhibited ([2]; other independent molecules identified in 1.4): less than 20% | FASN inhibited ([2]; residual lung metastatic lesions, vs SP141 and JP3 combined treatment group): 22% | number of perforation cells [3]: significantly reduced | lung metastatic foci [4]: did not decrease significantly | lung wet weight [4]: not obvious | lung wet weight [5]: significant decrease | number of metastatic foci [5]: significant decrease

SMILES: CCCCCCCCCCC[C@@H](C[C@@H]1OC(=O)[C@H]1CCCCCC)OC(=O)[C@H](CC(C)C)NC=O [Orlistat]
lung wet weight [5]: significant decrease | number of metastatic foci [5]: significant decrease

pIC50 [6]: 6.16 | pIC50 [7]: 6.22 | pIC50 [8]: 6.47 | pIC50 [14]: 6.21 | pIC50 [15]: 6.46
SMILES: COc1ccc2[nH]c3c(-c4cccc5ccccc45)nccc3c2c1 [SP141]
number of perforated cells [9]: gradually decreased with increasing dose | migration rate of the cells [10]: significantly slowed down | lung metastasis of melanoma [11]: can inhibit | JWA protein expression level [12]: no significant change | protein expression level of MDM2 [12]: decreased with increasing SP141 dose | number of cell perforations [13]: decrease | number of abdominal metastatic nodules compared with the control group ([16]; 40 mg/kg group): statistically significant | MDM2 protein levels in residual tumor tissues ([16]; 40 mg/kg group vs control, immunoblotting): significant decrease | number of gastric cancer abdominal implantation metastases ([16]; different doses intraperitoneally): could inhibit the number of gastric cancer abdominal implantation metastases | protein expression level of JWA [17]: no significant change | protein expression level of MDM2 [17]: decreased with increasing SP141 dose | fluorescence intensity of lung metastases [18]: weaker than that of the control group

SMILES: CCC[C@H](NC(=O)/C(C#N)=C/c1cccc(Br)n1)c1ccccc1 [WP-1130]
expression of USP9X protein [19]: reduced | transfer related protein p-AKT [19]: correspondingly reduced | scratch experiment [20]: consistent with those of the small chamber perforation experiment | lung metastatic foci [4]: decreased significantly | lung wet weight [4]: decreased significantly | number of cell perforations [21]: significantly inhibit
